In article PMC11855478, “Bicyclic N,S-Acetals Containing Fused Cysteine-Amide System as New Heterocyclic Class Targeting Human Farnesyltransferase (FTase-h)” (International Journal of Molecular Sciences, 2025):

Legend:
[1] = molecular target: human farnesyltransferase (FTase) (Homo sapiens, UniProt P49354+P49356); assay: FTase inhibitory assay (fluorescence, Dansyl-GCVLS); type: biochemical; details: for % FTI: inhibition of human FTase at 100 μM of tested compound, mean of two experiments
In short: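 Partially purified recombinant FTase with Dansyl-GCVLS and farnesyl pyrophosphate in Tris/HCl pH 7.5 (DTT, MgCl2, ZnCl2, octyl-glucoside); fluorescence (ex 340/em 486 nm) read 15 min at 30 °C. IC50 by regression for compounds inhibiting >60% at 100 µM; kinetics varied FPP (Dns-GCVLS 2.5 μM) or peptide (FPP 10 μM).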

RPMI-8226 (Leukemia) = assay: NCI one dose, RPMI-8226; type: cell-based, human; details: RPMI-8226, 1.00E-5 Molar one dose
Protocol: (§1) 3.4. Cell Proliferation Assay
(§2) Selected compounds were tested on a panel of 60 human cancer cell lines at the National Cancer Institute (NCI), Germantown, MD, USA. The cytotoxicity studies were conducted using a 48 h exposure protocol using the sulfo-rhodamine B assay.

[2] = test system: HOP-62 (Non-Small Cell Lung Cancer); assay: NCI one dose, HOP-62; type: cell-based, human; details: HOP-62, 1.00E-5 Molar one dose
Protocol: as §1, §2

[3] = test system: NCI-H460 (Non-Small Cell Lung Cancer); assay: NCI one dose, NCI-H460; type: cell-based, human; details: NCI-H460, 1.00E-5 Molar one dose
Protocol: as §1, §2

[4] = test system: NCI-H522 non-small cell lung cancer cells; assay: NCI cell proliferation, NCI-H522; type: cell-based, human; details: for inhibition at 10 µM: read-out: % Cancer cell growth Inhibition (NCI-H522); for Growth Percent: NCI-H522, 1.00E-5 Molar one dose
Protocol: as §1, §2

HCC-2998 (Colon Cancer) = assay: NCI one dose, HCC-2998; type: cell-based, human; details: HCC-2998, 1.00E-5 Molar one dose
Protocol: as §1, §2

SW-620 (Colon Cancer) = assay: NCI one dose, SW-620; type: cell-based, human; details: SW-620, 1.00E-5 Molar one dose
Protocol: as §1, §2

SF-268 (CNS Cancer) = assay: NCI one dose, SF-268; type: cell-based, human; details: SF-268, 1.00E-5 Molar one dose
Protocol: as §1, §2

SNB-75 (CNS Cancer) = assay: NCI one dose, SNB-75; type: cell-based, human; details: SNB-75, 1.00E-5 Molar one dose
Protocol: as §1, §2

LOX IMVI (Melanoma) = assay: NCI one dose, LOX IMVI; type: cell-based, human; details: 1.00E-5 Molar one dose
Protocol: as §1, §2

MDA-MB-435 (Melanoma) = assay: NCI one dose, MDA-MB-435; type: cell-based, human; details: MDA-MB-435, 1.00E-5 Molar one dose
Protocol: as §1, §2

SK-MEL-28 (Melanoma) = assay: NCI one dose, SK-MEL-28; type: cell-based, human; details: SK-MEL-28, 1.00E-5 Molar one dose
Protocol: as §1, §2

UACC-257 melanoma cells = assay: NCI one dose, UACC-257; type: cell-based, human; details: for Growth Percent: UACC-257, 1.00E-5 Molar one dose
Protocol: as §1, §2

OVCAR-3 (Ovarian Cancer) = assay: NCI one dose, OVCAR-3; type: cell-based, human; details: OVCAR-3, 1.00E-5 Molar one dose
Protocol: as §1, §2

[5] = test system: NCI/ADR-RES (Ovarian Cancer); assay: NCI one dose, NCI/ADR-RES; type: cell-based, human; details: 1.00E-5 Molar one dose
Protocol: as §1, §2

SK-OV-3 (Ovarian Cancer) = assay: NCI one dose, SK-OV-3; type: cell-based, human; details: SK-OV-3, 1.00E-5 Molar one dose
Protocol: as §1, §2

CAKI-1 (Renal Cancer) = assay: NCI one dose, CAKI-1; type: cell-based, human; details: CAKI-1, 1.00E-5 Molar one dose
Protocol: as §1, §2

SN12C (Renal Cancer) = assay: NCI one dose, SN12C; type: cell-based, human; details: 1.00E-5 Molar one dose
Protocol: as §1, §2

TK-10 (Renal Cancer) = assay: NCI one dose, TK-10; type: cell-based, human; details: TK-10, 1.00E-5 Molar one dose
Protocol: as §1, §2

UO-31 renal cancer cells = assay: NCI one dose, UO-31; type: cell-based, human; details: for Growth Percent: UO-31, 1.00E-5 Molar one dose
Protocol: as §1, §2

PC-3 (Prostate Cancer) = assay: NCI one dose, PC-3; type: cell-based, human; details: PC-3, 1.00E-5 Molar one dose
Protocol: as §1, §2

DU-145 (Prostate Cancer) = assay: NCI one dose, DU-145; type: cell-based, human; details: DU-145, 1.00E-5 Molar one dose
Protocol: as §1, §2

MCF7 (Breast Cancer) = assay: NCI one dose, MCF7; type: cell-based, human; details: MCF7, 1.00E-5 Molar one dose
Protocol: as §1, §2

BT-549 (Breast Cancer) = assay: NCI one dose, BT-549; type: cell-based, human; details: BT-549, 1.00E-5 Molar one dose
Protocol: as §1, §2

T-47D (Breast Cancer) = assay: NCI one dose, T-47D; type: cell-based, human; details: 1.00E-5 Molar one dose
Protocol: as §1, §2

[6] = test system: MDA-MB-468 breast cancer cells; assay: NCI one dose, MDA-MB-468; type: cell-based, human; details: for Growth Percent: MDA-MB-468, 1.00E-5 Molar one dose
Protocol: as §1, §2

SMILES | % FTI [1] | Growth Percent (RPMI-8226 (Leukemia)) | Growth Percent [2] | Growth Percent [3] | inhibition at 10 µM ([4]; Homo sapiens, NCI-H522) | Growth Percent [4] | Growth Percent (HCC-2998 (Colon Cancer)) | Growth Percent (SW-620 (Colon Cancer)) | Growth Percent (SF-268 (CNS Cancer)) | Growth Percent (SNB-75 (CNS Cancer)) | Growth Percent (LOX IMVI (Melanoma)) | Growth Percent (MDA-MB-435 (Melanoma)) | Growth Percent (SK-MEL-28 (Melanoma)) | Growth Percent (UACC-257 melanoma cells) | Growth Percent (OVCAR-3 (Ovarian Cancer)) | Growth Percent [5] | Growth Percent (SK-OV-3 (Ovarian Cancer)) | Growth Percent (CAKI-1 (Renal Cancer)) | Growth Percent (SN12C (Renal Cancer)) | Growth Percent (TK-10 (Renal Cancer)) | other results
COc1ccc(CNC(=O)[C@@H]2CS[C@@]3(C)c4ccccc4C(=O)N23)cc1OC [4bI] | 78% | 81.37% | 97.01% | 103.23% | 45% | 54.70% | 96.29% | 101.58% | 99.31% | 110.74% | 100.38% | 105.24% | 104.89% | 73.35% | 110.84% | 100.18% | 103.22% | 89.36% | 96.04% | 95.68% | IC50 ([1]; human FTase in vitro): 0.0251 µM; GI50 ([4]; Homo sapiens, NCI-H522): 12.9 µM; inhibition at 10 µM (UACC-257 melanoma cells; Homo sapiens, UACC-257, 10 µM single dose, read-out: inhibition of growth of UACC-257 melanoma cells): 27%; inhibition at 10 µM (UO-31 renal cancer cells; Homo sapiens, UO-31, 10 µM single dose, read-out: inhibition of growth of UO-31 renal cancer cells): 20%; Growth Percent (UO-31 renal cancer cells): 79.77%; Growth Percent (PC-3 (Prostate Cancer)): 88.41%; Growth Percent (DU-145 (Prostate Cancer)): 103.50%; Growth Percent (MCF7 (Breast Cancer)): 87.17%; Growth Percent (BT-549 (Breast Cancer)): 110.79%; Growth Percent (T-47D (Breast Cancer)): 71.47%; inhibition at 10 µM ([6]; Homo sapiens, MDA-MB-468, 10 µM single dose, read-out: inhibition of growth of MDA-MB-468 breast cancer cells): 30%; Growth Percent [6]: 70.36%
C[C@@]12SC[C@@H](C(=O)NCc3ccccc3)N1C(=O)c1ccccc12 [4bA] | 49% | 104.44% | 100.09% | 111.12% | 25% | 74.90% | 113.03% | 108.38% | 109.78% | 88.09% | 101.57% | 101.35% | 105.22% | 79.51% | 119.90% | 98.79% | 102.08% | 89.87% | 95.20% | 85.29% | Growth Percent (UO-31 renal cancer cells): 99.51%; Growth Percent (PC-3 (Prostate Cancer)): 90.34%; Growth Percent (DU-145 (Prostate Cancer)): 110.52%; Growth Percent (MCF7 (Breast Cancer)): 96.64%; Growth Percent (BT-549 (Breast Cancer)): 106.90%; Growth Percent (T-47D (Breast Cancer)): 90.12%; Growth Percent [6]: 99.04%
COc1ccccc1CNC(=O)[C@@H]1CS[C@@]2(C)c3ccccc3C(=O)N12 [4bG] | 30% | 96.98% | 98.30% | 107.31% | 30% | 70.03% | 108.79% | 104.41% | 105.82% | 96.63% | 98.70% | 103.94% | 109.27% | 74.15% | 110.44% | 102.18% | 99.44% | 90.92% | 107.44% | 91.89% | Growth Percent (UO-31 renal cancer cells): 94.50%; Growth Percent (PC-3 (Prostate Cancer)): 98.65%; Growth Percent (DU-145 (Prostate Cancer)): 107.06%; Growth Percent (MCF7 (Breast Cancer)): 92.90%; Growth Percent (BT-549 (Breast Cancer)): 109.63%; Growth Percent (T-47D (Breast Cancer)): 98.35%; Growth Percent [6]: 93.22%
C[C@@]12SC[C@@H](C(=O)NCc3ccccc3Br)N1C(=O)c1ccccc12 [4bB] | 39% | 91.24% | 99.61% | 103.30% | 22% | 78.46% | 97.16% | 103.50% | 96.91% | 92.47% | 97.04% | 96.92% | 104.28% | 75.54% | 111.49% | 94.45% | 88.35% | 79.18% | 89.32% | 99.69% | Growth Percent (UO-31 renal cancer cells): 86.71%; Growth Percent (PC-3 (Prostate Cancer)): 78.76%; Growth Percent (DU-145 (Prostate Cancer)): 101.37%; Growth Percent (MCF7 (Breast Cancer)): 87.26%; Growth Percent (BT-549 (Breast Cancer)): 107.51%; Growth Percent (T-47D (Breast Cancer)): 83.93%; Growth Percent [6]: 88.64%
